This is an account of results in ChEMBL document CHEMBL5532682, “Recent advances of tryptanthrin and its derivatives as potential anticancer agents” (RSC Med Chem, 2024).

The structures appear in SMILES notation.

One series concerns PC-3. The series is described as follows: Antiproliferative activity against human PC-3 cells incubated by 48 hrs by MTT assay. The series is classed as functional, cell-based. Conditions: PC-3, 48 h. A general note: Tetrazolium assays rely on reduction of a dye to a coloured formazan, in cell work by metabolically active cells.
For the next series, the system named is HepG2. The series is described as follows: Antiproliferative activity against human HepG2 cells incubated by 48 hrs by MTT assay. It counts as functional, cell-based. Conditions: HepG2, 48 h.
Series [1] deals with Hep 3B2. Kind of series: Anticancer activity against human Hep3B cells measured after 48 hrs. The series is classed as functional, cell-based.
Series [2] relates to A549. The series is described as follows: Antiproliferative activity against human A549 cells incubated by 48 hrs by MTT assay. Conditions: A549, 48 h. It counts as functional, cell-based.
The test system of series [3] is A549. Kind of series: Antiproliferative activity against human A549 cells. The series is classed as functional, cell-based.
Another series relates to K562. Kind of series: Antiproliferative activity against human K562 cells incubated by 48 hrs by MTT assay. It counts as functional, cell-based. Conditions: K562, 48 h.
Series [4] is described as follows: Antiproliferative activity against mouse MC3T3-E1 cells. The series is classed as toxicity, cell-based.
The next series has as its system DU-145. The series is described as follows: Growth inhibition of human DU-145 cells assessed as reduction in cell viability. The series is classed as functional.
In series [5] the test system is Hep 3B2. Kind of series: Antiproliferative activity against human Hep3B cells measured after 48 hrs by MTT assay. The series is classed as functional, cell-based.
The test system of series [6] is HCT-116. The series is described as follows: Antiproliferative activity against human HCT-116 cells measured after 48 hrs by MTT assay. The series is classed as functional, cell-based. Conditions: HCT-116, 48 h.
Series [7] relates to MDA-MB-231. The series is described as follows: Antiproliferative activity against human MDA-MB-231 cells measured after 48 hrs by MTT assay. The following applies: MDA-MB-231, 48 h. The series is classed as functional, cell-based.
For series [8], the system named is A549. Kind of series: Antiproliferative activity against human A549 cells measured after 48 hrs by MTT assay. It counts as functional, cell-based. Conditions: A549, 48 h.
Series [9] deals with HCT-116. The series is described as follows: Antiproliferative activity against human HCT-116 cells measured after 48 hrs. The series is classed as functional, cell-based. Conditions: HCT-116, 48 h.
Series [10] deals with A549. Kind of series: Antiproliferative activity against human A549 cells measured after 48 hrs. The series is classed as functional, cell-based. Conditions: A549, 48 h.
Series [11] relates to MDA-MB-231. Kind of series: Antiproliferative activity against human MDA-MB-231 cells measured after 48 hrs. It counts as functional, cell-based. Conditions: MDA-MB-231, 48 h.
Another series has as its system SW-620. The series is described as follows: Growth inhibition of human SW620 cells assessed as reduction in cell viability. The series is classed as functional.
For another series, the system named is SK-OV-3. Kind of series: Growth inhibition of human SK-OV-3 cells assessed as reduction in cell viability. It counts as functional.
In another series the test system is NCI/ADR-RES. Kind of series: Growth inhibition of human MCF7ADR cells assessed as reduction in cell viability. The series is classed as functional.
In a further series the test system is M14. Kind of series: Growth inhibition of human M14 cells assessed as reduction in cell viability. The series is classed as functional.
In series [12] the test system is MDA-MB-231. Kind of series: Antiproliferative activity against human MDA-MB-231 cells. It counts as functional, cell-based.
For another series, the system named is PANC-1. The series is described as follows: Antiproliferative activity against human PANC-1 cells. It counts as functional, cell-based.
For another series, the system named is HT-29. The series is described as follows: Antiproliferative activity against human HT-29 cells. It counts as functional, cell-based.
Series [13] in a line: Cytotoxicity activity against human HDF cells. It counts as toxicity, cell-based. Conditions: HDF cells (NHDF).

Broadly, the IC50 is the concentration that gives 50% inhibition. Read a high IC50 as weaker potency. Consider `O=C1c2cc(F)ccc2-n2c1nc1ccccc1c2=O`, for which the IC50 in the series with PC-3 came to 10.6 µM; with HepG2, 1.97 µM; in the series on Hep 3B2 [1] it was 4.1 µM; in the series on A549 [2], 2.36 µM; with A549 [3], 10.9 µM; with K562 it was 2.66 µM. In [4], this compound showed an IC50 of 97 µM.
Usually GI50 stands for the concentration giving 50% growth inhibition. On to `O=c1c2ccccc2nc2n1-c1ccccc1/C2=N\OCCN1CCCC1`, for which the GI50 in the series with DU-145 stood at 2 µM.
As for `O=C1c2cc(Cl)ccc2-n2c1nc1ccccc1c2=O`, the IC50 is 8.48 µM in the series on PC-3; 2.95 µM in the series with HepG2; 4.21 µM with A549 [2]; 22.6 µM in the series with A549 [3]; 3.7 µM with Hep 3B2 [5]; 3.67 µM in the series on K562. In addition, the IC50 in series [4] was above 100 µM.
Take `O=C1c2ccccc2-n2c1nc1ccc(F)cc1c2=O`: the IC50 in the series on PC-3 is 9.7 µM; in the series on HepG2 it was 5.63 µM; in the series on Hep 3B2 [1], above 20 µM; in the series with A549 [2] it was 2.34 µM; with K562, 6.77 µM.
The compound `Cc1ccc2c(c1)C(=O)c1nc3ccccc3c(=O)n1-2` displayed an IC50 with Hep 3B2 [1] of 6.5 µM. This counts as single-digit micromolar.
`O=C1c2c(N3CCCCC3)cccc2-n2c1nc1ccccc1c2=O`: the IC50 in the series on HCT-116 [6], with MDA-MB-231 [7], in the series on A549 [8], with HCT-116 [9], in the series on A549 [10] and in the series with MDA-MB-231 [11] was above 100 µM throughout.
As for `O=C1c2c(N3CCOCC3)cccc2-n2c1nc1ccccc1c2=O`, the IC50 with HCT-116 [6] is 90 µM; in the series on MDA-MB-231 [7], 56.1 µM; in the series with A549 [8] it was 13.7 µM; with HCT-116 [9] it was 1.62 µM; with A549 [10] it was above 100 µM; in the series with MDA-MB-231 [11], 48.3 µM.
As to `C=C[C@]1(O)c2ccccc2-n2c1nc1ccccc1c2=O`, the GI50 was 10 µM with SW-620; 6 µM in the series on SK-OV-3; 10 µM in the series with DU-145; 20 µM in the series with NCI/ADR-RES; 8 µM with M14.
Regarding `O=C1c2ccccc2-n2c1nc1ccc(F)c(Cl)c1c2=O`, the IC50 (in the series with A549 [3]; in series [4]) was above 100 µM in each case.
As for `Cc1nn(Cl)c2c1[C@@]1(C(C#N)=C(N)O2)c2ccccc2-n2c1nc1ccccc1c2=O`, the concentration for half-maximal inhibition (IC50) with MDA-MB-231 [12] is 47.9 µM; with PANC-1 it was 49.4 µM; in the series with HT-29 it was 77.4 µM; in series [13], above 100 µM.
As to `O=C1c2c(N3CCN(c4ccccn4)CC3)cccc2-n2c1nc1ccccc1c2=O`, the IC50 with HCT-116 [6], with MDA-MB-231 [7], in the series on A549 [8], in the series on HCT-116 [9], in the series on A549 [10] and with MDA-MB-231 [11] was above 100 µM throughout.
Turning to `O=C1c2c(ccc(F)c2N2CCN(C(=O)c3ccco3)CC2)-n2c1nc1ccccc1c2=O`, the IC50 with HCT-116 [6], with MDA-MB-231 [7], with A549 [8], in the series on HCT-116 [9], in the series on A549 [10] and in the series with MDA-MB-231 [11] was above 100 µM each time.
Take `Cc1n[nH]c2c1[C@@]1(C(C#N)=C(N)O2)c2ccccc2-n2c1nc1ccccc1c2=O`: the IC50 is 60.8 µM in the series with MDA-MB-231 [12], 21.4 µM with PANC-1, 90.4 µM in the series with HT-29 and above 100 µM in series [13].
Turning to `Cc1nn(Cl)c2c1[C@@]1(C(C#N)=CO2)c2cc(-c3cccc(Cl)c3)ccc2-n2c1nc1ccccc1c2=O`, the IC50 in the series with MDA-MB-231 [12] is 92.8 µM; with PANC-1, 60.6 µM; with HT-29, above 100 µM; in [13], above 100 µM.
As to `O=C1c2cc(Br)ccc2-n2c1nc1ccc(F)cc1c2=O`, inhibition with Hep 3B2 [1] was half-maximal at 5.8 µM (IC50).
As to `CN(C)c1cccc2c1C(=O)c1nc3ccccc3c(=O)n1-2`, the IC50 in the series on HCT-116 [9], in the series on A549 [10] and in the series with MDA-MB-231 [11] was above 100 µM throughout.
As for `Cc1nn(Br)c2c1[C@@]1(C(C#N)=CO2)c2cc(-c3ccccc3)ccc2-n2c1nc1ccccc1c2=O`, the IC50 in the series on MDA-MB-231 [12] is 65.4 µM; with PANC-1, 85.3 µM; with HT-29, above 100 µM; in series [13], above 100 µM.
For the compound `O=C1c2cc(Cl)c(N3CCCCC3)cc2-n2c1nc1ccccc1c2=O`, the IC50 in the series on HCT-116 [9], with A549 [10] and in the series with MDA-MB-231 [11] was above 100 µM each time.
Take `Cc1nn(Cl)c2c1[C@@]1(C(C#N)=C(N)O2)c2cc(-c3ccccc3)ccc2-n2c1nc1ccccc1c2=O`: the IC50 in the series on MDA-MB-231 [12] was 62.8 µM; in the series on PANC-1 it was above 100 µM; in the series on HT-29 it was above 100 µM; in series [13], above 100 µM.
In the case of `O=C1c2ccccc2-n2c1nc1cccc(F)c1c2=O`, the 50% inhibitory concentration (IC50) in the series on PC-3 came to 12.4 µM; in the series on HepG2, 6.26 µM; in the series on A549 [2], 5.45 µM; in the series with K562, 6.86 µM.
